Key:
Assay in all cases: biochemical
Set-up in all cases: Invitrogen kinase panel: Z'Lyte activity (ATP at Km) or LanthaScreen competitive ATP-site binding, percent inhibition
AKT1 = AKT1 (Homo sapiens, UniProt P31749)
CAMKK2 = CAMKK2 (Homo sapiens, UniProt Q96RR4)
CLK3 = CLK3 (Homo sapiens, UniProt P49761)
DYRK3 = DYRK3 (Homo sapiens, UniProt O43781)
DYRK4 = DYRK4 (Homo sapiens, UniProt Q9NR20)
EphA1 = EphA1 (Homo sapiens, UniProt P21709)
EphA3 = EphA3 (Homo sapiens, UniProt P29320)
EphB3 = EphB3 (Homo sapiens, UniProt P54753)
ErbB4 = ErbB4 (Homo sapiens, UniProt Q15303)
GRK3 = GRK3 (Homo sapiens, UniProt P35626)
GRK5 = GRK5 (Homo sapiens, UniProt P34947)
HIPK2 = HIPK2 (Homo sapiens, UniProt Q9H2X6)
IKK_alpha = biological target: T1, IKK_alpha (Homo sapiens, UniProt O15111)
T1 construct: gene CHUK

JAK3 = JAK3 (Homo sapiens, UniProt P52333)
MAP4K4 = MAP4K4 (Homo sapiens, UniProt O95819)
MKNK2 = MKNK2 (Homo sapiens, UniProt Q9HBH9)
MST3 = biological target: T2, MST3 (Homo sapiens, UniProt Q9Y6E0)
T2 construct: gene STK24

PASK = PASK (Homo sapiens, UniProt Q96RG2)
PI3K-G = biological target: T3, PI3K-G (Homo sapiens, UniProt P48736)
T3 construct: gene PIK3CG

PRK1 = biological target: T4, PRK1 (Homo sapiens, UniProt Q16512)
T4 construct: gene PKN1

Ret = Ret (Homo sapiens, UniProt P07949)
TrkB = biological target: T5, TrkB (Homo sapiens, UniProt Q16620)
T5 construct: gene NTRK2

WEE1 = WEE1 (Homo sapiens, UniProt P30291)
mTOR = mTOR (Homo sapiens, UniProt P42345)
p38_gamma = biological target: T6, p38_gamma (Homo sapiens, UniProt P53778)
T6 construct: gene MAPK12

AKT1, sequence (P31749 whole entry): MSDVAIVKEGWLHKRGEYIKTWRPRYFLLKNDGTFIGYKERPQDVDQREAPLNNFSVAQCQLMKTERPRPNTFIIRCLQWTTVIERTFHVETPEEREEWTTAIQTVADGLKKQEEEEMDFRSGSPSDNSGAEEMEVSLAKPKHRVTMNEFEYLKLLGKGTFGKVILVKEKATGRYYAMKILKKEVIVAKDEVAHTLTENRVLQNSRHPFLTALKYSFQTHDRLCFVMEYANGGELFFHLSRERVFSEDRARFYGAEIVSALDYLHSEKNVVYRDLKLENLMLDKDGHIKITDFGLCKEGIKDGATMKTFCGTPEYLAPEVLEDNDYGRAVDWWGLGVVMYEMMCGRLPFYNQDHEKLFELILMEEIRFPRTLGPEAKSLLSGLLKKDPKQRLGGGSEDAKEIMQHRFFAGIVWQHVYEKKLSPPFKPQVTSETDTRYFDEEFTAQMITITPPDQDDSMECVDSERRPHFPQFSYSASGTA
EphB3, sequence (P54753 whole entry): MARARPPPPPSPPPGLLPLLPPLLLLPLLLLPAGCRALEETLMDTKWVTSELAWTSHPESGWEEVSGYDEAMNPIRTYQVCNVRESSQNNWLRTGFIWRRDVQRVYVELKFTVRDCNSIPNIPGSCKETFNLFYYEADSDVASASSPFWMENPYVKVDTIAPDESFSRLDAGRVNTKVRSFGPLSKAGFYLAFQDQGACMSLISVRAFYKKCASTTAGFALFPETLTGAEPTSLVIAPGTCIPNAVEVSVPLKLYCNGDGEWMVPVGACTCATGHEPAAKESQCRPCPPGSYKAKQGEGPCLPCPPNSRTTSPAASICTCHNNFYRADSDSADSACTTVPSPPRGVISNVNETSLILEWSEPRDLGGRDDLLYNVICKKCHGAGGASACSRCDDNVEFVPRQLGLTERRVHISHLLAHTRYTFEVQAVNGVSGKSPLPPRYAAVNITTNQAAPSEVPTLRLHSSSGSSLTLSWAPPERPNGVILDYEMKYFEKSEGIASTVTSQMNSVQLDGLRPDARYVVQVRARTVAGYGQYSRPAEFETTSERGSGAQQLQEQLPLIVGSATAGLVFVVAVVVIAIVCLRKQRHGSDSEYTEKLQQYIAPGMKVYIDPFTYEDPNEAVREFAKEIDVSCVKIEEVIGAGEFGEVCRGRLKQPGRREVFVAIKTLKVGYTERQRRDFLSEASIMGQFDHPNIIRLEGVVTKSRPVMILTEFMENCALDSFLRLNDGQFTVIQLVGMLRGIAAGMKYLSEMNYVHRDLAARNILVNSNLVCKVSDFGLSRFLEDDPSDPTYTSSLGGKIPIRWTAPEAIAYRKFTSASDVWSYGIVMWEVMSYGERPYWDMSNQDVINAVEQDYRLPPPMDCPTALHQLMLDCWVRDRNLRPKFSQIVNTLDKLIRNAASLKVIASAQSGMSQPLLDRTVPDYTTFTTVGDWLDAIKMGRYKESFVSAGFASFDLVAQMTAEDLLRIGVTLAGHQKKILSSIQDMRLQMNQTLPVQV
MAP4K4, sequence (O95819 whole entry): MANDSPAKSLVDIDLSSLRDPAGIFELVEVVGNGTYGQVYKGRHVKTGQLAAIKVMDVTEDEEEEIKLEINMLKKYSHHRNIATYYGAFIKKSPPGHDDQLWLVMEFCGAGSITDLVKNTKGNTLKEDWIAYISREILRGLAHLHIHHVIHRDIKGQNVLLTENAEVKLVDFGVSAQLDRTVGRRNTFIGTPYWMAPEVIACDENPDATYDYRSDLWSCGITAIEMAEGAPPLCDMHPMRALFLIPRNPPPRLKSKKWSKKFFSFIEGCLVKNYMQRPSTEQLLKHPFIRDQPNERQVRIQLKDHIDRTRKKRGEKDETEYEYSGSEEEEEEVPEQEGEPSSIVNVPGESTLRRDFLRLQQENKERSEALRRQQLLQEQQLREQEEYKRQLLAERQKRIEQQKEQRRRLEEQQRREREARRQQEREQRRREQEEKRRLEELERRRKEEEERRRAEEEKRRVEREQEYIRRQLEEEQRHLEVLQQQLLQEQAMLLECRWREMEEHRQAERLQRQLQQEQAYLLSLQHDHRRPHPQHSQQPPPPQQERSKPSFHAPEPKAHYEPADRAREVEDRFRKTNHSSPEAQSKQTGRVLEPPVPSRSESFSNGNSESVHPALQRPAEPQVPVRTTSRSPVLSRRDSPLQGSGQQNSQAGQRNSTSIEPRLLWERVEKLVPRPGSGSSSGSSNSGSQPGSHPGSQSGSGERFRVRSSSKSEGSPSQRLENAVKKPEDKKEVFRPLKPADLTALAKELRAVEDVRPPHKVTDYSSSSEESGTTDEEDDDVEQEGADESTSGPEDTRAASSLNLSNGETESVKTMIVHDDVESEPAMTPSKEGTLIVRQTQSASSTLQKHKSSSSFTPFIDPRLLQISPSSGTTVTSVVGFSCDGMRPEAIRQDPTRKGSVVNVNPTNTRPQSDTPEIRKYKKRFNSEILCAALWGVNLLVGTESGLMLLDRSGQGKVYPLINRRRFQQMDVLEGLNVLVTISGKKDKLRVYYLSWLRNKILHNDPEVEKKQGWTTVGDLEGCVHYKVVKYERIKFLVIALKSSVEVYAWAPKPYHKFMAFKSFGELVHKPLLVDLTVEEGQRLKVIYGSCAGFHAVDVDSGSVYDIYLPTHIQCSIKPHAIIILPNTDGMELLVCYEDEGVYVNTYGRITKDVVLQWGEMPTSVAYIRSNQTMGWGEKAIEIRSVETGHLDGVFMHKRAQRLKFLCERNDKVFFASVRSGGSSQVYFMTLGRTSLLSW
MKNK2, sequence (Q9HBH9 whole entry): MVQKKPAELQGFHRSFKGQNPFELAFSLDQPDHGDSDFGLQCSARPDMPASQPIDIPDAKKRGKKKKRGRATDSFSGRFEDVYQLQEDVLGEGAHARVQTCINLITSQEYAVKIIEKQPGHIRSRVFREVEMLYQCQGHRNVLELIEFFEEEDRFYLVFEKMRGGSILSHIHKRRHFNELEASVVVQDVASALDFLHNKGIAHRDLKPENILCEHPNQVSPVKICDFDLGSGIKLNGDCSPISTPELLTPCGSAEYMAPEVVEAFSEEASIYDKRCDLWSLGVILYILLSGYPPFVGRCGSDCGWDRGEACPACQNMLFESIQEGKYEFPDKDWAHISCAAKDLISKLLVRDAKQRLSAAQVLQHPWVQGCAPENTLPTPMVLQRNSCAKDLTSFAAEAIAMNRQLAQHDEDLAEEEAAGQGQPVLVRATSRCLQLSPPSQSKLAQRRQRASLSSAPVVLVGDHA
T1 sequence (O15111 whole entry): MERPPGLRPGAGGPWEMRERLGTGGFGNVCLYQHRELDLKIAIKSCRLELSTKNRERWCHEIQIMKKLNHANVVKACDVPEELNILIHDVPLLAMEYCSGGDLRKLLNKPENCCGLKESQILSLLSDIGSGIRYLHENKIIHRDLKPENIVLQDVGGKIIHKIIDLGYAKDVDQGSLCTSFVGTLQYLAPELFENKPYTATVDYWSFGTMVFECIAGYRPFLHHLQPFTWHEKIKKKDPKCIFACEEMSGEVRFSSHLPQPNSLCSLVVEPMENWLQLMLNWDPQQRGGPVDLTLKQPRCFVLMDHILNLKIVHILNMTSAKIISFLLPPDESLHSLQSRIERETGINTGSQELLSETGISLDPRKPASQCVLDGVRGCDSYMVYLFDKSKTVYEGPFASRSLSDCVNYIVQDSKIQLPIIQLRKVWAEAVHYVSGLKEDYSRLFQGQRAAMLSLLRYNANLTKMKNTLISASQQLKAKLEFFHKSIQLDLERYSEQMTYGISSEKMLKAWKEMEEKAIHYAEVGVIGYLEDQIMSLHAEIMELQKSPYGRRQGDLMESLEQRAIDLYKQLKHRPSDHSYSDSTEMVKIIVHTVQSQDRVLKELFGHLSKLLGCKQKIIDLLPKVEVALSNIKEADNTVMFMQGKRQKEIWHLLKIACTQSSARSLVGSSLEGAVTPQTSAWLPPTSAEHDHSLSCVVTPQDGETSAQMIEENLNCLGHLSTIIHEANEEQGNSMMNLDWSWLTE
CLK3, sequence (P49761 whole entry): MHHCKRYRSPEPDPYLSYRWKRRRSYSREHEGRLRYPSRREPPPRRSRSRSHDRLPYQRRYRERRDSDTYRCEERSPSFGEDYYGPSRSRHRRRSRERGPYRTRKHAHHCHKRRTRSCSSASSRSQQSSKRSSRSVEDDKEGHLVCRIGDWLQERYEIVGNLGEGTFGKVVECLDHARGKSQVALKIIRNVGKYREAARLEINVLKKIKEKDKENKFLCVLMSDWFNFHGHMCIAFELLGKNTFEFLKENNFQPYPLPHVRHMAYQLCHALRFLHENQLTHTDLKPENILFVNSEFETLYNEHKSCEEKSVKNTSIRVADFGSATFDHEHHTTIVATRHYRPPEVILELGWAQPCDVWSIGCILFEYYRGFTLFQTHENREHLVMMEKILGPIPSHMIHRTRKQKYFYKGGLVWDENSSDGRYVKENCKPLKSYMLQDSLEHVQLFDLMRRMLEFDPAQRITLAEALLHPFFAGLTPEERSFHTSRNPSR
DYRK4, sequence (Q9NR20 whole entry): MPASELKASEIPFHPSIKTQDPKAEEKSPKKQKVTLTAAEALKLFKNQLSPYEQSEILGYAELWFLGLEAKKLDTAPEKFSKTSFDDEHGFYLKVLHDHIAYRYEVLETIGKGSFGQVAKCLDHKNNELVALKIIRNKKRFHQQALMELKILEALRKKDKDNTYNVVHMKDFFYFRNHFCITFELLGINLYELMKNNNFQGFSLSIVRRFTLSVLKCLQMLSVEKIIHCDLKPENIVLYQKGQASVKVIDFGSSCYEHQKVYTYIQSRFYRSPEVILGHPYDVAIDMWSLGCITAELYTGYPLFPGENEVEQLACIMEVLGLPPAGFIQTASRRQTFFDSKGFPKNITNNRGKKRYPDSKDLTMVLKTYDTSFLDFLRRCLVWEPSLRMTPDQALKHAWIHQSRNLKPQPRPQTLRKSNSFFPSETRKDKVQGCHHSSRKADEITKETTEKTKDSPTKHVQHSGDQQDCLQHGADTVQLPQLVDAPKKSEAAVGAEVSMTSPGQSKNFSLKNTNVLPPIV

SMILES | inhibition at 1 µM (AKT1) [%] | inhibition at 1 µM (CAMKK2) [%] | inhibition at 1 µM (CLK3) [%] | inhibition at 1 µM (DYRK3) [%] | inhibition at 1 µM (DYRK4) [%] | inhibition at 1 µM (EphA1) [%] | inhibition at 1 µM (EphA3) [%] | inhibition at 1 µM (EphB3) [%] | inhibition at 1 µM (ErbB4) [%] | inhibition at 1 µM (GRK3) [%] | inhibition at 1 µM (GRK5) [%] | inhibition at 1 µM (HIPK2) [%] | inhibition at 1 µM (IKK_alpha) [%] | inhibition at 1 µM (JAK3) [%] | inhibition at 1 µM (MAP4K4) [%] | inhibition at 1 µM (MKNK2) [%] | inhibition at 1 µM (MST3) [%] | inhibition at 1 µM (PASK) [%] | inhibition at 1 µM (PI3K-G) [%] | inhibition at 1 µM (PRK1) [%] | further results
CC#CC(=O)Nc1cccc2c(Oc3ncccc3-c3ccnc(N[C@H]4CCCNC4)n3)c(C)ccc12 [G-7658] | -13.5 | -0.5 | 11.5 | 1 | 1 | 6 | 4.5 | 4.5 | 11.5 | -1.5 | -3 | 2.5 | -2 | -15 | 21.5 | -2 | -8.5 | 9.5 | -7 | -1.5 | inhibition at 1 µM (Ret): 8%; inhibition at 1 µM (TrkB): 0.5%; inhibition at 1 µM (WEE1): -0.5%; inhibition at 1 µM (mTOR): 7%; inhibition at 1 µM (p38_gamma): 16.5%
CCOC(=O)Nc1cccc2c(Oc3ncccc3-c3ccnc(N[C@H]4CCCNC4)n3)c(C)ccc12 [G-1749] | -16.5 | -0.5 | 7 | 3.5 | 2.5 | 7 | 1 | 3 | 4.5 | -1 | -3 | 3 | -3.5 | -15.5 | 31 | 3.5 | -2 | 4.5 | 16 | 0 | inhibition at 1 µM (Ret): 10%; inhibition at 1 µM (TrkB): 0.5%; inhibition at 1 µM (WEE1): -5%; inhibition at 1 µM (mTOR): 5%; inhibition at 1 µM (p38_gamma): 18%

Reference: paper PMC7736581, “Activation of the IRE1 RNase through remodeling of the kinase front pocket by ATP-competitive ligands” (Nature Communications, 2020)
